Assay results published in ChEMBL document CHEMBL1151358, “Doridosine, 1-methylisoguanosine, from Anisodoris nobilis; structure, pharmacological properties and synthesis” (1981).

Assays:
[1] = Inhibition of guinea pig atrial contraction at 14 uM; type: functional; conditions: Cavia porcellus, Cardiac atrium
[2] = Inhibition of guinea pig atrial contraction at 5 uM; type: functional; conditions: Cavia porcellus, Cardiac atrium
[3] = Inhibition of guinea pig atrial contraction at 20 uM; type: functional; conditions: Cavia porcellus, Cardiac atrium
[4] = Inhibition of guinea pig atrial contraction at 5 uM in presence of 10 uM/L theophylline; type: functional, Cavia porcellus, Cardiac atrium
[5] = Inhibition of guinea pig atrial contraction at 5 uM in presence of 100 uM/L theophylline; type: functional, Cavia porcellus, Cardiac atrium
[6] = Inhibition of guinea pig atrial contraction at 20 uM in presence of 10 uM/L theophylline; type: functional, Cavia porcellus, Cardiac atrium
[7] = Inhibition of guinea pig atrial contraction at 20 uM in presence of 100 uM/L theophylline; type: functional, Cavia porcellus, Cardiac atrium

Cn1c(=O)[nH]c2c(ncn2[C@@H]2O[C@H](CO)[C@@H](O)[C@H]2O)c1=N
inhibition at 14 µM [1]: 50%
inhibition at 5 µM [2]: 65%
inhibition at 20 µM [3]: 45.2%
inhibition (INH) [4]: 83%
inhibition (INH) [5]: 64%
inhibition (INH) [6]: 95%
inhibition (INH) [7]: 82%
